Publication PMC9226319, “Peripherally restricted transthyretin-based delivery system for probes and therapeutics avoiding opioid-related side effects” (Nature Communications, 2022)
Values joined by “and” are separate entries in the source; they are usually repeats but may differ in a detail not shown here. Equal values may be shown once. “Also recorded” adds a separate entry of the source. Read-outs that look alike come from different tables or passages of the source.

What was measured:
purified human TTR = purified human TTR (Homo sapiens, UniProt P02766); test: Fluorescence polarization (FP) binding assay, ligands to TTR in buffer
TTR in human serum = TTR in human serum (Homo sapiens, UniProt P02766); test: TTR serum fluorescent probe exclusion (FPE) selectivity assay; format: binding; conditions: ligand 10 µM; for %FPE probe fluorescence: human serum, replicates
[1] = target: T1, human mu-opioid receptors (Homo sapiens, UniProt P35372); test: biochemical; format: binding
[2] = Serum stability assay of AG10-L2-Nal, mouse serum; format: in vitro ADME; conditions: 100 µM
Procedure: (§1) AG10-L2-Nal (100 μM) was incubated in sera, and the concentration remaining in respective media was determined at 0 and 48 h using HPLC. Bar graphs represent the mean of % compound remaining ± s.d. […] The plasma, brain tissue, and CSF were collected at 30 min after dosing. The ratio of the brain (ng/g) versus plasma concentration (ng/mL) is expressed as the percentage brain to plasma ratio. The ratio of the CSF (ng/mL) versus plasma concentration (ng/mL) is expressed as the percentage CSF to plasma ratio. Bar graphs show the respective mean (±s.d.) (n = 3 for each group). […] The concentration of the test compounds in plasma was determined at different time points and expressed as means ± s.d. of three biological replicates. Source data are provided as a Source Data file. […]
(§2) (Taiwan). The experimental procedure was performed as reported12. […]
(§3) Serum stability assay of AG10-L2-Nal. […] 100 μL samples were analyzed at 0 h, 24 h, and 48 h time intervals. […] The supernatant was analyzed using Waters™ XBridge C18 column (4.6x250 mm, 5μm) on Waters e2695 separations module HPLC system connected to a Waters 2998 photodiode array detector operating between the UV ranges of 200-400 nm. […]

[3] = Serum stability assay of AG10-L2-Nal, rat serum; format: in vitro ADME; conditions: 100 µM
Procedure: as §1, §2, §3

[4] = Long-term stability assay of AG10-L2-Nal in PBS buffer; format: physicochemical; conditions: 100 µM, 37 °C, analysed weekly for four weeks
male Sprague-Dawley rats = test: Gastrointestinal (GI) transit (charcoal meal) assays; format: in vivo, rat; conditions: rat, in vivo
holo-RBP-TTR interaction = holo-RBP-TTR interaction (Homo sapiens, UniProt P02766); test: Effect on holo-RBP-TTR interaction in human serum (cross-linking, Western blot)
[5] = rat; for plasma concentration: SC 16 µmol/kg, individual animals
in vivo = conditions: male, Sprague Dawley, rat, iv, percentage CSF to plasma ratio
in vitro = conditions: human, % Cell viability, replicates
[6] = target: T1, human mu-opioid receptors; test: biochemical; format: biochemical; set-up: host or cells: CHO-K1 (Chinese hamster ovary), membrane preparation

T1 sequence (P35372 whole entry): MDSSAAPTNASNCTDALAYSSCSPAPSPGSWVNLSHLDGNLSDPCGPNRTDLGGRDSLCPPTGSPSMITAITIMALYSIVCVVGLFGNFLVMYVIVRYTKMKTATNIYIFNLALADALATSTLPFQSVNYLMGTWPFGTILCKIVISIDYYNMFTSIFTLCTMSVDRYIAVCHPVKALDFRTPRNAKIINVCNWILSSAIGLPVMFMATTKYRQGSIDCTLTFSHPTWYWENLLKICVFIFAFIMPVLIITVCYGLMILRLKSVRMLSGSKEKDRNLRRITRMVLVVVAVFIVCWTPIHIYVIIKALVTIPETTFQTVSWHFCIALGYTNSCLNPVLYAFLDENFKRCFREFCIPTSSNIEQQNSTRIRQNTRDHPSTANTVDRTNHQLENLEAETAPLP

## C=CCN1CC[C@]23c4c5ccc(O)c4O[C@H]2[C@@H](OCc2cn(CCNCCCCCCOc4cc(OCCCc6c(C)n[nH]c6C)cc(C(=O)O)c4)nn2)CC[C@@]3(O)[C@H]1C5 [AG10-L2-Nal]
Purified human TTR
  Kd: 333 nM
Purified human TTR; log [nM] inhibitor 0.990
  % Fluorescence polarization (mean): 100.000%
Purified human TTR; log [nM] inhibitor 1.291
  % Fluorescence polarization (mean): 106.646%
Purified human TTR; log [nM] inhibitor 1.592
  % Fluorescence polarization (mean): 105.531%
Purified human TTR; log [nM] inhibitor 1.893
  % Fluorescence polarization (mean): 103.770%
Purified human TTR; log [nM] inhibitor 2.194
  % Fluorescence polarization (mean): 97.021%
Purified human TTR; log [nM] inhibitor 2.495
  % Fluorescence polarization (mean): 90.708%
Purified human TTR; log [nM] inhibitor 2.796
  % Fluorescence polarization (mean): 79.479%
Purified human TTR; log [nM] inhibitor 3.097
  % Fluorescence polarization (mean): 54.083%
Purified human TTR; log [nM] inhibitor 3.398
  % Fluorescence polarization (mean): 38.835%
Purified human TTR; log [nM] inhibitor 3.699
  % Fluorescence polarization (mean): 31.550%
Purified human TTR; log [nM] inhibitor 4.000
  % Fluorescence polarization (mean): 21.649%
Purified human TTR; log [nM] inhibitor […]
  % Fluorescence polarization (mean): 0.000%
TTR in human serum; FPE probe 3.6 µM, 3 h reading relative to probe alone, text mean ± s.d., table replicates
  % TTR occupancy in human serum: 62.5 ± 1.1% and 62.04% and 62.07% and 64.05% and 61.92%
TTR in human serum; time 0.000 h
  %FPE probe fluorescence: 0.000%
TTR in human serum; time 0.083 h
  %FPE probe fluorescence: 0.018% and 0.756% and -2.232% and -2.399%
TTR in human serum; time 0.250 h
  %FPE probe fluorescence: -1.158% and 2.209% and 1.458% and -0.885%
TTR in human serum; time 0.500 h
  %FPE probe fluorescence: 4.241% and 3.528% and 5.089% and 2.218%
TTR in human serum; time 1.000 h
  %FPE probe fluorescence: 6.503% and 10.611% and 13.590% and 14.148%
TTR in human serum; time 1.250 h
  %FPE probe fluorescence: 9.009% and 13.005% and 15.989% and 16.127%
TTR in human serum; time 1.500 h
  %FPE probe fluorescence: 13.314% and 18.863% and 18.262% and 17.288%
TTR in human serum; time 1.750 h
  %FPE probe fluorescence: 17.598% and 21.285% and 22.377% and 21.648%
TTR in human serum; time 2.000 h
  %FPE probe fluorescence: 21.919% and 25.680% and 23.861% and 25.075%
TTR in human serum; time 2.250 h
  %FPE probe fluorescence: 26.163% and 28.876% and 26.928% and 27.418%
TTR in human serum; time 2.500 h
  %FPE probe fluorescence: 26.877% and 32.466% and 29.919% and 30.633%
TTR in human serum; time 2.750 h
  %FPE probe fluorescence: 34.129% and 34.947% and 31.920% and 33.937%
TTR in human serum; time 3.000 h
  %FPE probe fluorescence: 37.964% and 37.926% and 35.954% and 38.083%
TTR in human serum; time 3.500 h
  %FPE probe fluorescence: 44.335% and 44.718% and 41.995% and 45.800%
TTR in human serum; time 3.750 h
  %FPE probe fluorescence: 47.041% and 46.124% and 44.395% and 46.344%
TTR in human serum; time 4.000 h
  %FPE probe fluorescence: 49.775% and 49.574% and 47.863% and 50.648%
TTR in human serum; time 4.250 h
  %FPE probe fluorescence: 49.252% and 50.428% and 49.751% and 51.967%
TTR in human serum; time 4.500 h
  %FPE probe fluorescence: 53.631% and 53.865% and 52.939% and 52.730%
TTR in human serum; time 4.750 h
  %FPE probe fluorescence: 56.220% and 54.908% and 55.174% and 55.874%
TTR in human serum; time 5.000 h
  %FPE probe fluorescence: 57.139% and 56.055% and 53.820% and 57.315%
TTR in human serum; time 5.250 h
  %FPE probe fluorescence: 59.200% and 60.014% and 56.004% and 59.143%
TTR in human serum; time 5.500 h
  %FPE probe fluorescence: 60.336% and 59.246% and 59.233% and 60.795%
TTR in human serum; time 5.750 h
  %FPE probe fluorescence: 61.971% and 60.994% and 58.022% and 62.173%
TTR in human serum; time 6.000 h
  %FPE probe fluorescence: 64.344% and 63.419% and 61.650% and 63.934%
[1]
  % Inhibition of Control Specific Binding: 88.5%
  fold better mu-opioid receptor binding affinity than MNTX: 17 fold
  fold higher mu-opioid receptor binding affinity than AG10-L1-Nal: 5.7 fold
[1]; binding affinity to mu-opioid receptor (Ki)
  Ki: 0.35 nM
[1]; binding affinity to mu-opioid receptor (Ki) in the presence of TTR
  Ki: 1.3 nM
[2]; 0 h, replicates
  % compound remaining in mouse serum: 98.29% and 100.51% and 101.20%
[2]; 37 °C, 48 h, table replicates
  % compound remaining in mouse serum: 100% and 99.98% and 100.20% and 102.73%
[3]; 0 h, replicates
  % compound remaining in rat serum: 101.22% and 98.78% and 100.03%
[3]; 37 °C, 48 h, table replicates
  % compound remaining in rat serum: 100% and 99.06% and 98.97% and 99.95%
[4]
  chemical stability in PBS buffer: stable in buffer for a least one month; also recorded: chemically stable in phosphate buffer saline for at least one month at 37 °C
Male Sprague-Dawley rats
  GI transit 2.5h as % of saline group: 45.3% and 46.0% and 49.8% and 55.5% and 53.6% and 48.3%
  reversal of OIC in the presence of AG10: no improvement in the OIC
Male Sprague-Dawley rats; sc
  GI transit as % of vehicle group, compound alone: 95.27% and 87.87% and 102.14% and 105.69% and 102.69%
holo-RBP-TTR interaction; 20 µM in human serum, 2 h 37 °C
  interference with holo-RBP binding to TTR: does not interfere with
holo-RBP-TTR interaction; human serum, quantified from gel image, replicates (Supp Fig.14b)
  %holo RBP binding to TTR: 7% and 8.1% and 7.9%
[5]; 0.03 h
  plasma concentration: 1290 nM and 1240 nM and 552 nM
[5]; 0.25 h
  plasma concentration: 5340 nM and 6840 nM
[5]; 0.5 h
  plasma concentration: 3960 nM and 4020 nM
[5]; 0.75 h
  plasma concentration: 3620 nM and 2900 nM
[5]; 1 h
  plasma concentration: 3480 nM and 3260 nM
[5]; 2 h
  plasma concentration: 1350 nM and 1760 nM
[5]; 4 h
  plasma concentration: 1120 nM and 1540 nM
[5]; 6 h
  plasma concentration: 623 nM and 938 nM
[5]; 8 h
  plasma concentration: 699 nM and 1120 nM
[5]; 12 h
  plasma concentration: 166 nM and 200 nM and 516 nM
[5]; 24 h
  plasma concentration: 49.7 nM and 31.1 nM
[5]; single SC dose 16 µmol/kg
  k: 0.20 ± 0.04 h⁻¹
In vivo
  Kp: 0.01
In vitro; 10 μM
  viability at 72 h, 10 µM: 102%
In vitro; 100 μM
  viability at 72 h, 100 µM: 112%
[6]
  IC50: 7.5 nM
  Kb: 0.81 nM
  agonism relative to DAMGO: 2%
  fold increase of morphine EC50: 950 fold
  fold more potent than naloxegol in functional assay: 10 fold
